Test results: US6545006B1, “Process for obtaining L-dihydroorotic acid and use thereof” (Aventis Pharma Deutschland GmbH, priority 1997, dated 2003)

How the values were obtained:
DHO-DH = target: T1, DHO-DH (Mus musculus, UniProt O35435); assay: Intracellular DHO-concentrations in A20.2.J cells incubated with A77 1726; format: cell-based; conditions: for DHO-Concentration (μg/ml ± SD) Experiment 1 (E10 B) / DHO-Concentration (μg/ml ± SD) Experiment 2 (E14): 5 μM A77 1726, 24 hours, n=3
T1 construct: endogenous in cells; host or cells: A20.2.J cells
T1 sequence (O35435 whole entry): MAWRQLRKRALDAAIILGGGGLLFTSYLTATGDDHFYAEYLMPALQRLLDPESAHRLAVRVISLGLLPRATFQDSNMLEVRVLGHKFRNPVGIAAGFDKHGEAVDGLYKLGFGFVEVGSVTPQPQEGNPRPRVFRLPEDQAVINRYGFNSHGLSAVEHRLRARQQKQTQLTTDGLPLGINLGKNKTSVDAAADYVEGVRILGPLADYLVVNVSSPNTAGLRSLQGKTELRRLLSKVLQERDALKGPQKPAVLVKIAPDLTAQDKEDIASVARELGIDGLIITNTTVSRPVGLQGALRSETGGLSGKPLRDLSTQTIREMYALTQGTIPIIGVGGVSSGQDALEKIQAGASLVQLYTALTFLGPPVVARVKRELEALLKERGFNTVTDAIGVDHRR
Experimental: Cell Culture: A20.2.J cells were cultured in serum free medium (37° C., 5% CO2) in an expansion culture at logarithmic cell growth. […] The percentage of dead cells were <8% (3).
Prepared cells were resuspended in a defined medium volume and cell density. Depending on expected DHO content, between 1-50 million cells were removed, pelleted (5 min, 350×g) and supernatant discarded. Cell were lysed, by adding 500 μl 1.2 M HCIO4. The lysates were transferred into 2 ml Eppendorf safe-lock-caps, and the protein precipitated by 2 min high speed centrifugation. The acidified lysates were completely removed, transferred into glass vials and, after addition of 500 μl chloroform, thoroughly mixed by 2 min vortexing. Cellular lipids were extracted following 10 min cold centrifugation (1502×g; 10° C.). The purified supernatants were collected in 2 ml Eppendorf caps for storage at −20° C. until high pressure liquid chromatography (HPLC) determination.
The chromatographic separation was performed as described in example 1.The range of the conductive detector was set to 10 μS. The analysis was performed at room temperature. The mobile phase was composed of 100 mM NaOH (A) and water (B). With that system the following gradient was produced:
(* all values extrapolated to 10×10^6 cells) (n=2).
The data are given as μg/ml DHO±SD extrapolated to ten million cells (0-4 h=n=2, 7 h=n=4).

[1] = A77 1726 concentrations in serum from rats treated with leflunomide; format: in vivo, rat; conditions: for A77 1726 concentrations in serum, Mean: leflunomide 10 mg/kg p.o. twice daily; for A77 1726 serum concentration: 3 hours after oral drug administration
Experimental: Animals: Male Wistar-Lewis rats (Mollegaard Breading Center Ltd. Ejby, DK) with a body weight of 160-200 g.
Adjuvant Arthritis: The disease was induced by injecting 0.1 ml Freund's adjuvant (6 mg Mycobacterium smegmatis suspended in 1 ml heavy, white paraffin oil (Merck, Darmstadt) into the root of Wistar-Lewis rat's tails. Pathological symptoms generally appear between 10 and 14 days after disease induction.
Drug Treatment: Drugs were suspended in 1% carboxymethylcellulose (COMC). […] (see table 12). At time point 0 h, 3 animals from both diseased and non-diseased groups were sacrificed to determine base-line levels. An additional 3 healthy and 3 diseased animals were treated with placebo (COMC alone) for 5 days.
Sampling: Three animals per group were sacrificed at each sampling time point. Serum and splenocytes taken at 3 h, 7 h, 27 h, 51 h, 75 h, and 99 h (see table 12). With the exception of the 7 h value, samples were taken three hours after the last drug application. The 7 h value was taken one hour after the second dosing. Samples from the placebo treated animals were taken at the 0 h (n=3) and 99 h (n=3) time points
Blood collected by heart puncture was stored for 30 min at 4° C. and then centrifuged for 10 min at 3000 rpm. Serum was separated and stored in Eppendorf-caps at −20° C. (3). Before HPLC analysis, the frozen serum was thawed and, in order to remove the proteins, 200 μl serum were added to a Microcon filter (model 10,code 42407, Amicon) and centrifuged for 30 min at 13 000 rpm.
The tubes were then mixed in a Vortex mixer and centrifuged at 2500 rpm (room temperature) for 10 minutes. For HPLC analysis, the supernatant (400 μl) was transferred to a vial and water (400 μl) added and mixed. The HPLC conditions were as follows: The hardware consisted of a TSP P2000 pump, a TSP AS1000 auto-sampler, a TSP SP4270 integrator, and a TSP UV100 UV-detector. Detection was at 292 nm wavelength. The mobile phase consisted of 650 ml methanol (CHROMASOLV), 2,42 g tetrabutylammoniumbromide, and 350 ml 0,05 M Ammoniumacetate. The flow rate was 0.5 ml/min A CHROMPACK Spherisorb ODS-2 10 cm column with a 1 cm reversed phase (R2) guard column was used. 100 μl was injected into the column and the running time was 7 min.

## CC(O)=C(C#N)C(=O)Nc1ccc(C(F)(F)F)cc1 [A77 1726, N-(4-trifluoromethyl)-2-cyano-3-hydroxy-crotonamide]
DHO-DH; 1 ×10^6 cells extracted
  DHO-Concentration (μg/ml ± SD) Experiment 1 (E10 B): 14.08 ± 2.40 µg/mL
  DHO-Concentration (μg/ml ± SD) Experiment 2 (E14): 11.75 ± 0.23 µg/mL
DHO-DH; 1 × 10^6 cells/ml, 1 h, 5 μM A77 1726, extrapolated to 10×10^6 cells, n=2
  Concentration DHO (μg/ml) mean ± SD: 6.25 ± 0.42 µg/mL
DHO-DH; 1 × 10^6 cells/ml, 4 h, 5 μM A77 1726, extrapolated to 10×10^6 cells, n=2
  Concentration DHO (μg/ml) mean ± SD: 33.06 ± 2.26 µg/mL
DHO-DH; 1 × 10^6 cells/ml, 7 h, 5 μM A77 1726, extrapolated to 10×10^6 cells, n=2
  Concentration DHO (μg/ml) mean ± SD: 60.07 ± 0.01 µg/mL
DHO-DH; 1×10^6 cells/ml, independent of the drug concentration
  incubation time after which detectable amounts of DHO could be determined: 1 h
DHO-DH; 1×10^6 cells/ml, saturation afterwards
  incubation time with the greatest amount of DHO determined: 6 h
DHO-DH; 2 ×10^6 cells extracted
  DHO-Concentration (μg/ml ± SD) Experiment 1 (E10 B): 19.51 ± 6.47 µg/mL
  DHO-Concentration (μg/ml ± SD) Experiment 2 (E14): 28.27 ± 0.79 µg/mL
DHO-DH; 2 × 10^6 cells/ml, 1 h, 5 μM A77 1726, extrapolated to 10×10^6 cells, n=2
  Concentration DHO (μg/ml) mean ± SD: 5.47 ± 0.10 µg/mL
DHO-DH; 2 × 10^6 cells/ml, 4 h, 5 μM A77 1726, extrapolated to 10×10^6 cells, n=2
  Concentration DHO (μg/ml) mean ± SD: 26.36 ± 0.42 µg/mL
DHO-DH; 2 × 10^6 cells/ml, 7 h, 5 μM A77 1726, extrapolated to 10×10^6 cells, n=2
  Concentration DHO (μg/ml) mean ± SD: 42.31 ± 1.07 µg/mL
DHO-DH; 3 × 10^6 cells/ml, 1 h, 5 μM A77 1726, extrapolated to 10×10^6 cells, n=2
  Concentration DHO (μg/ml) mean ± SD: 5.63 ± 0.19 µg/mL
DHO-DH; 3 × 10^6 cells/ml, 4 h, 5 μM A77 1726, extrapolated to 10×10^6 cells, n=2
  Concentration DHO (μg/ml) mean ± SD: 19.39 ± 1.87 µg/mL
DHO-DH; 3 × 10^6 cells/ml, 7 h, 5 μM A77 1726, extrapolated to 10×10^6 cells, n=2
  Concentration DHO (μg/ml) mean ± SD: 28.79 ± 0.34 µg/mL
DHO-DH; 4 ×10^6 cells extracted
  DHO-Concentration (μg/ml ± SD) Experiment 1 (E10 B): 53.58 ± 3.50 µg/mL
  DHO-Concentration (μg/ml ± SD) Experiment 2 (E14): 57.20 ± 2.76 µg/mL
DHO-DH; 6 ×10^6 cells extracted
  DHO-Concentration (μg/ml ± SD) Experiment 1 (E10 B): 73.01 ± 1.49 µg/mL
  DHO-Concentration (μg/ml ± SD) Experiment 2 (E14): 85.38 ± 2.33 µg/mL
DHO-DH; 8 ×10^6 cells extracted
  DHO-Concentration (μg/ml ± SD) Experiment 1 (E10 B): 99.89 ± 5.96 µg/mL
  DHO-Concentration (μg/ml ± SD) Experiment 2 (E14): 107.02 ± 3.47 µg/mL
DHO-DH; 10 ×10^6 cells extracted
  DHO-Concentration (μg/ml ± SD) Experiment 1 (E10 B): 113.37 ± 4.24 µg/mL
  DHO-Concentration (μg/ml ± SD) Experiment 2 (E14): 128.73 ± 1.95 µg/mL
DHO-DH; A77 1726 5 μM, 0 h, one million cells/ml, extrapolated to ten million cells
  Concentration DHO (μg/ml) mean ± SD: 2.73 ± 0.10 µg/mL
DHO-DH; A77 1726 5 μM, 1 h, one million cells/ml, extrapolated to ten million cells
  Concentration DHO (μg/ml) mean ± SD: 9.20 ± 0.09 µg/mL
DHO-DH; A77 1726 5 μM, 2 h, one million cells/ml, extrapolated to ten million cells
  Concentration DHO (μg/ml) mean ± SD: 24.03 ± 1.15 µg/mL
DHO-DH; A77 1726 5 μM, 4 h, one million cells/ml, extrapolated to ten million cells
  Concentration DHO (μg/ml) mean ± SD: 59.48 ± 0.72 µg/mL
DHO-DH; A77 1726 5 μM, 7 h, one million cells/ml, extrapolated to ten million cells
  Concentration DHO (μg/ml) mean ± SD: 87.54 ± 1.58 µg/mL
DHO-DH; A77 1726 10 μM, 0 h, one million cells/ml, extrapolated to ten million cells
  Concentration DHO (μg/ml) mean ± SD: 2.73 ± 0.10 µg/mL
DHO-DH; A77 1726 10 μM, 1 h, one million cells/ml, extrapolated to ten million cells
  Concentration DHO (μg/ml) mean ± SD: 8.5 ± 0.39 µg/mL
DHO-DH; A77 1726 10 μM, 2 h, one million cells/ml, extrapolated to ten million cells
  Concentration DHO (μg/ml) mean ± SD: 20.74 ± 1.43 µg/mL
DHO-DH; A77 1726 10 μM, 4 h, one million cells/ml, extrapolated to ten million cells
  Concentration DHO (μg/ml) mean ± SD: 58.65 ± 2.06 µg/mL
DHO-DH; A77 1726 10 μM, 7 h, one million cells/ml, extrapolated to ten million cells
  Concentration DHO (μg/ml) mean ± SD: 82.65 ± 4.50 µg/mL
DHO-DH; A77 1726 25 μM, 0 h, one million cells/ml, extrapolated to ten million cells
  Concentration DHO (μg/ml) mean ± SD: 2.73 ± 0.08 µg/mL
DHO-DH; A77 1726 25 μM, 1 h, one million cells/ml, extrapolated to ten million cells
  Concentration DHO (μg/ml) mean ± SD: 15.05 ± 0.26 µg/mL
DHO-DH; A77 1726 25 μM, 2 h, one million cells/ml, extrapolated to ten million cells
  Concentration DHO (μg/ml) mean ± SD: 26.06 ± 0.20 µg/mL
DHO-DH; A77 1726 25 μM, 4 h, one million cells/ml, extrapolated to ten million cells
  Concentration DHO (μg/ml) mean ± SD: 50.21 ± 1.54 µg/mL
DHO-DH; A77 1726 25 μM, 7 h, one million cells/ml, extrapolated to ten million cells
  Concentration DHO (μg/ml) mean ± SD: 114.89 ± 3.61 µg/mL
DHO-DH; incubation with A77 1726
  accumulation of L-DHO in A20.2.J tumor cells: rapid accumulation of L-DHO
[1]; Adjuvant Diseased Rats, 3 h
  A77 1726 concentrations in serum, Mean: 26.33 µg/mL
[1]; Adjuvant Diseased Rats, 7 h
  A77 1726 concentrations in serum, Mean: 42.3 µg/mL
[1]; Adjuvant Diseased Rats, 27 h
  A77 1726 concentrations in serum, Mean: 19.7 µg/mL
[1]; Adjuvant Diseased Rats, 51 h
  A77 1726 concentrations in serum, Mean: 9.2 µg/mL
[1]; Adjuvant Diseased Rats, 75 h
  A77 1726 concentrations in serum, Mean: 9.9 µg/mL
[1]; Adjuvant Diseased Rats, 99 h
  A77 1726 concentrations in serum, Mean: 12.2 µg/mL
[1]; Non-Diseased Rats, 3 h
  A77 1726 concentrations in serum, Mean: 30.7 µg/mL
[1]; Non-Diseased Rats, 7 h
  A77 1726 concentrations in serum, Mean: 47.9 µg/mL
[1]; Non-Diseased Rats, 27 h
  A77 1726 concentrations in serum, Mean: 9.6 µg/mL
[1]; Non-Diseased Rats, 51 h
  A77 1726 concentrations in serum, Mean: 7400 µg/mL
[1]; Non-Diseased Rats, 99 h
  A77 1726 concentrations in serum, Mean: 12.7 µg/mL
[1]; adjuvant diseased rats
  A77 1726 serum concentration: about 26 μg/ml
[1]; diseased animals
  time to reach the 7 to 12 μg/ml A77 1726 serum concentrations: 51 h
[1]; non-diseased rats
  time to reach the 7 to 12 μg/ml A77 1726 serum concentrations: 27 h
  A77 1726 serum concentration: ~31 µg/mL
[1]; one hour after the second dosing
  time of peak A77 1726 serum concentration: 7 h
